# Source: US9675574B2, “Composition comprising a combination of DHA and EPA for administration prior to commencement of chemotherapy” (Fresenius Kabi Deutschland GmbH, priority 2010, dated 2017)
# How the values were obtained:
# [1] = tested on: HT-29 colorectal cancer cells; assay: 15-day clonogenicity experiment, pretreatment before irradiation (Example 6); type: cell-based, human; details: 48 h pretreatment with 20 μM to 100 μM, irradiation 2 to 6 Gy
# Procedure: (§1) HT-29 colorectal cancer cells (ATCC number HTB-38) were cultured in Dulbecco's Modified Eagle's Medium (DMEM, product number D 5030, Sigma Chemie AG, Buchs, Switzerland) supplemented with 10% heat-inactivated fetal calf serum (FBS), 1 g/L D-glucose, 3.7 g/L sodium bicarbonate and 0.1 g/L penicillin-streptomycin (all additives from Life Technologies Inc., Grand Island, N.Y.). The cells were cultured at 37° C. in a humidified atmosphere with a 5% CO2 content and kept in the exponential growth phase by twice weekly subculturing. The cultures were tested for mycoplasma infection using the MycoAlert Detection Kit (product number LT07-118, Cambrex, Verviers, Belgium).
# The cytotoxic effect of a two-day (48 hours) pretreatment of HT-29 cells with 0 μM, 20 μM, 50 μM or 100 μM DHA or EPA on irradiation of the cells at 0 Gy, 2 Gy, 4 Gy or 6 Gy was examined in a 15-day clonogenicity experiment.
# To this end, the culture medium of the cells was replaced with medium which contained the relevant concentrations (0 μM, 20 μM, 50 μM or 100 μM) of DHA or EPA. Controls were cultured in medium without EPA and without DHA. […] The cells were then detached from the culture vessel by means of trypsinization (1× trypsin-EDTA, Life Technologies Inc., Grand Island, N.Y.), resuspended and counted. […] The surviving cell fraction was calculated with reference to the untreated controls (S/S0).
# [2] = tested on: colorectal cancer cell lines, breast cancer cell lines and lung cancer cell lines; assay: Clonogenicity experiment with further tumor cell lines, pre- versus posttreatment (Example 7); type: cell-based; details: irradiation
# Procedure: The experiment is carried out analogously with further tumor cell lines (colorectal cancer cell lines, breast cancer cell lines and lung cancer cell lines).
# HT-29 = assay: 15-day clonogenicity experiment, treatment prior to versus after irradiation (Example 7); type: cell-based, human; details: treatment prior to irradiation (A) versus untreated controls (C) and treatment after irradiation (B); for formation of colonies: 20-100 μM, 48 h
# Procedure: as §1, with “Human” for “HT-29 colorectal”, “cell lines (HT-29; ATCC” for “cells (ATCC”, “are” for “were”, “NY).” for “N.Y.).”
# The cytotoxic effect of treatment of the cells with DHA, EPA, MCTs and iron on irradiation of the cells at 0 Gy, 2 Gy, 4 Gy or 6 Gy is examined in a 15-day clonogenicity experiment.
# Firstly, the influence of 0 μM, 20 μM, 50 μM or 100 μM DHA or EPA in the case of treatment of the cells (A) prior to the irradiation compared to the treatment of the cells after the irradiation (B) is determined. Cells untreated with EPA or DHA, which are also irradiated, serve as a control (C).
# In the case of the cells which are treated with EPA or DHA prior to the irradiation (A), the culture medium of the cells is replaced with medium containing the relevant concentrations (0 μM, 20 μM, 50 μM or 100 μM) of DHA or EPA. The cells are cultured for 48 hours in the medium, and then irradiated with an individual radiation dose of 0 Gy (control), 2 Gy, 4 Gy or 6 Gy in an X-ray 6 MV instrument.
# In the case of cells which are treated with EPA or DHA after the irradiation (B) and in the case of the control cells (C), a media change is carried out 48 hours prior to the irradiation; the cells receive normal culture medium. After 48 hours, the cells are irradiated with an individual radiation dose of 0 Gy (control), 2 Gy, 4 Gy or 6 Gy in an X-ray 6 MV instrument.
# After the irradiation, the cells are then detached from the culture vessel by means of trypsinization (1× trypsin-EDTA, Life Technologies Inc., Grand Island, NY), resuspended and counted. The cells are subsequently serially diluted according to a standard protocol and seeded in 100×20 mm cell culture dishes containing 10 mL of medium in a cell count which leads to the formation of about 200 colonies. Cells of groups A and C are seeded in normal culture medium, and cells of group B are seeded in medium containing the relevant concentrations (0 μM, 20 μM, 50 μM or 100 μM) of DHA or EPA.
# After 48 hours, all cells are subjected to a media change, after which all cells are cultured in normal culture medium.
# After a total of 14 days of incubation at 37° C., the vessels are washed with phosphate-buffered saline (PBS, Life Technologies Inc., Grand Island, N.Y.), fixed, and stained with a 0.5% crystal violet solution in methanol/glacial acetic acid (3:1, v/v). The surviving cell fraction is calculated with reference to the untreated controls (S/S0).
structure (smiles),measurement,setting,value
"CC/C=C\C/C=C\C/C=C\C/C=C\C/C=C\C/C=C\CCC(=O)O [DHA, (4Z,7Z,10Z,13Z,16Z,19Z)-docosa-4,7,10,13,16,19-hexaenoic acid]",effect on survival of HT-29 cells in combination with irradiation,[1],synergistic effect
same,cytotoxic effect of pretreatment compared to posttreatment,[2],greater cytotoxic effect
same,size of colonies formed,HT-29,colonies formed are smaller
same,surviving cell fraction (S/S0),HT-29,also smaller
same,formation of colonies,HT-29,fewer colonies
"CC/C=C\C/C=C\C/C=C\C/C=C\C/C=C\CCCC(=O)O [EPA, (5Z,8Z,11Z,14Z,17Z)-eicosa-5,8,11,14,17-pentaenoic acid]",effect on survival of HT-29 cells in combination with irradiation,[1],synergistic effect
same,cytotoxic effect of pretreatment compared to posttreatment,[2],greater cytotoxic effect
same,size of colonies formed,HT-29,colonies formed are smaller
same,surviving cell fraction (S/S0),HT-29,also smaller
same,formation of colonies,HT-29,fewer colonies
